In patent US20090202481A1, “Composition for Sustained Release Delivery of Proteins or Peptides” (priority 2008, published 2009):

What was measured:
Type in all cases: physicochemical
[1] = Physical stability (phase separation, top/bottom ratio) of SAIB/NMP formulations standing at room temperature
Protocol: (§1) Octreotide acetate (OCT-Ac) and octreotide conjugate (PAL-PEG-BA-OCT) powders were dissolved in NMP. Then the solutions containing various forms of octreotide were thoroughly mixed with SAIB solution in NMP (90% w/w).
(§2) The formulations as prepared above were allowed to stand at room temperature (˜22° C.). At predefined time points, the appearance of the formulations was recorded and an aliquot of each of both the supernatant and bottom composition was collected and analyzed by HPLC for octreotide content. The physical stability of the formulations was determined by direct observation or using the ratio of the content of the octreotide in the supernatant to that in the bottom composition. If the ratio equals to 1.0, the formulation is uniform and stable.

[2] = Purity of the octreotide in formulations at room temperature over time (HPLC); settings: SAIB/NMP formulation
Protocol: as §1, §2

[3] = In vitro release of octreotide from SAIB/NMP formulations into PBS 7.4 at 37° C.; settings: PBS 7.4, 37° C., SAIB/NMP formulation
Protocol: Formulations were prepared by mixing octreotide acetate (OCT-Ac) and octreotide conjugate (PAL-PEG-BA-OCT) powders with SAIB solution in NMP (90% w/w).
Due to the physical instability of the formulation containing OCT-Ac, the in vitro release was investigated immediately after the preparation of the formulations. An aliquot of the suspension was used for the in vitro release. About 0.1 mL of each formulation containing octreotide was injected into 3 mL of releasing buffer (PBS 7.4, containing 0.1% sodium azide) in a 4 mL glass vial. The vials were incubated at 37° C. and sampled at various time points. At each time point, 2 mL of release medium was removed and 2 mL of fresh release medium added. The collected samples were analyzed for peptide concentration and integrity by HPLC using an YMC-Pack ODS-120A column. Triplicate samples were used for each formulation.

For `C[C@@H](O)[C@@H]1NC(=O)[C@H](CCCCN)NC(=O)[C@@H](Cc2c[nH]c3ccccc23)NC(=O)[C@H](Cc2ccccc2)NC(=O)[C@@H](NC(=O)[C@H](N)Cc2ccccc2)CSSC[C@@H](C(=O)N[C@H](CO)[C@@H](C)O)NC1=O` [OCT-Ac, Octreotide acetate], the “Appearance when combined with SAIB/NMP solution” value ([1]; on mixing, about 6% octreotide content) was “phase separation occurred immediately”, the “NMP in the bottom phase” value ([1]; room temperature, SAIB/NMP formulation) was “slightly more NMP” and the OCT ratio top/bottom ([1]; room temperature, after 5 days) was “less than 0.03”. The “Concentration of the octreotide in the bottom phase relative to the upper phase” value ([1]; room temperature, after two days) was “about 20 folds”, the “Phase separation of formulation (FIG. 1)” value ([1]; stood at room temperature for 24 h) was “apparent phase separation occurred” and the “Octreotide degraded in the bottom phase” value ([2]; after 7 days) was “more than 20%”. For the same compound, the “Octreotide degraded in the supernatant” value ([2]; after 7 days) was “More than half”, the “Octreotide degraded or reacted” value ([2]; after two hours) was “about 4%” and the “Initial burst release (FIG. 2)” value [3] was “very high initial burst release”. The Octreotide released ([3]; after two weeks) was “more than 90%” and the Octreotide released ([3]; within 24 hours) was “More than 60%”.
